Experiments:
[1] = Release of DB-67 from liposomes (dialysis at 37° C., HPLC analysis); format: physicochemical
Procedure: The drug/cyclodextrin solution was used to hydrate phospholipids (DSPC, 40 mg/ml) with vigorous shaking at 60° C. to form a suspension of multilamellar vesicles. The suspension was extruded through a high-pressure extruder to form unilamellar vesicles. […] A small amount of this micellar solution was added to the unilamellar vesicles following extrusion and incubated at 60° C. for 5 min. The vesicles were then cooled at room temperature and stored below 5° C. until use. Prior to use, liposomes were separated from unentrapped drug by passing through a gel filtration column which was pre-equilibrated with pH 7.4 “carbonated” phosphate buffered saline (PBS). “Carbonated” PBS was prepared at physiological concentration of carbonate, phosphate and sodium chloride such that the total solute concentration of the buffer was isoosmotic with that of whole blood. […] 100 μl samples were taken from inside the dialysis tube at various time intervals and diluted into 900 μl of ice-cold solution of methanol and acetonitrile (2:1, v/v) at -25° C. Following dilution samples were stored at -25° C. until HPLC analysis. […] Liposomes were separated from the unentrapped drug and HPβCD by size exclusion chromatography on Sephadex® columns. […] The pipette tip used for sampling was washed in the same quenching solution to transfer any adsorbed drug. […] Following dialysis, samples were withdrawn from the dialysis tube, diluted into methanol, and stored at -25° C. until HPLC analysis. […] The sampling and processing conditions were the same as in the pH-permeability studies described earlier. The effect of varying intravesicular pH on the apparent permeability was probed only at a single (50 mM) cyclodextrin concentration.

[2] = animal data, intravenous administration; cited from earlier work
[3] = Drug loading of DB-67 into liposomes by passive encapsulation

CC[C@@]1(O)C(=O)OCc2c1cc1n(c2=O)Cc2c-1nc1ccc(O)cc1c2[Si](C)(C)C(C)(C)C [DB-67, 7-t-butyldimethylsilyl-10-hydroxycamptothecin]
drug retention in liposomes as a function of pH ([1]; increasing pH, intravesicular cyclodextrin constant at 50 mM (FIG. 4)): increases drug retention | release profile of DB-67 from liposomes ([1]; liposomes prepared at pH 4, citrate buffer, 0.1 M hydroxypropyl-β-cyclodextrin (FIG. 2)): uniform release profile | release profile of DB-67 from liposomes ([1]; liposomes prepared at pH 7.4, citrate buffer, 0.1 M hydroxypropyl-β-cyclodextrin (FIG. 3)): uniform release | lactone to total AUC [2]: > 90% | DB-67 concentration of liposome suspension that could be prepared (loading) ([3]; absence of cyclodextrin, all drug is entrapped): 0.05 mg/mL | DB-67 concentration of liposome suspension that could be prepared (loading) ([3]; intraliposomal pH increased to 9.5, with hydroxypropyl-β-cyclodextrin): 1.4 mg/mL

Source: patent publication US20090196918A1, “Liposomal formulations of hydrophobic lactone drugs in the presence of metal ions” (University of Kentucky Research Foundation, priority 2008, published 2009)
